This note sets out measurements from patent publication US20200199127A1, “(HETERO)ARYLALKYLAMINO-PYRAZOLOPYRIDAZINE DERIVATIVES HAVING MULTIMODAL ACTIVITY AGAINST PAIN” (priority 2017, published 2020).

Structures are written as SMILES.

The target in experiment [1] is Human norepinephrine transporter (NET) (Homo sapiens, UniProt P23975). Nature of the experiment: Binding assay to human norepinephrine transporter (NET), [3H]-Nisoxetin. The conditions noted are these: human NET enriched membranes, 5 nM [3H]-Nisoxetin; Ki as class symbol. The method, then:
Binding Assay to Human Norepinephrine Transporter (NET).
Human norepinephrine transporter (NET) enriched membranes (5 μg) were incubated with 5 nM of radiolabeled [3H]-Nisoxetin in assay buffer containing 50 mM Tris-HCl, 120 mM NaCl, 5 mM KCl, pH 7.4.
NSB (non specific binding) was measured by adding 10 μM of desipramine. The binding of the test compound was measured at five different concentrations.. After 60 min incubation at 4° C., binding reaction was terminated by filtering through Multiscreen GF/C (Millipore) presoaked in 0.5% polyethyleneimine in Vacuum Manifold Station, followed by 3 washes with ice-cold filtration buffer containing 50 mM Tris-HCl, 0.9% NaCl, pH 7.4.
Filter plates were dried at 60° C. for 1 hour and 30 μl of scintillation cocktail were added to each well before radioactivity reading.

Experiment [2] addresses Human α2δ-1 subunit of Cav2.2 calcium channel (Homo sapiens, UniProt P54289). Nature of the experiment: Human α2δ-1 subunit of Cav2.2 calcium channel assay, [3H]-Gabapentin binding. The conditions noted are these: human α2δ-1 enriched membranes, 15 nM [3H]-Gabapentin; Ki as class symbol. The method, then: Human α2δ-1 Subunit of Cav2.2 Calcium Channel Assay
Human α2δ-1 enriched membranes (2.5 μg) were incubated with 15 nM of radiolabeled [3H]-Gabapentin in assay buffer containing Hepes-KOH 10 mM, pH 7.4. NSB (non specific binding) was measured by adding 10 μM pregabalin. The binding of the test compound was measured at five different concentrations. After 60 min incubation at 27° C., binding reaction was terminated by filtering through Multiscreen GF/C (Millipore) presoaked in 0.5% polyethyleneimine in Vacuum Manifold Station, followed by 3 washes with ice-cold filtration buffer containing 50 mM Tris-HCl, pH 7.4. Filter plates were dried at 60° C. for 1 hour and 30 μl of scintillation cocktail were added to each well before radioactivity reading. Readings were performed in a Trilux 1450 Microbeta radioactive counter (Perkin Elmer).

Sequence of Human norepinephrine transporter (NET) (P23975 whole entry): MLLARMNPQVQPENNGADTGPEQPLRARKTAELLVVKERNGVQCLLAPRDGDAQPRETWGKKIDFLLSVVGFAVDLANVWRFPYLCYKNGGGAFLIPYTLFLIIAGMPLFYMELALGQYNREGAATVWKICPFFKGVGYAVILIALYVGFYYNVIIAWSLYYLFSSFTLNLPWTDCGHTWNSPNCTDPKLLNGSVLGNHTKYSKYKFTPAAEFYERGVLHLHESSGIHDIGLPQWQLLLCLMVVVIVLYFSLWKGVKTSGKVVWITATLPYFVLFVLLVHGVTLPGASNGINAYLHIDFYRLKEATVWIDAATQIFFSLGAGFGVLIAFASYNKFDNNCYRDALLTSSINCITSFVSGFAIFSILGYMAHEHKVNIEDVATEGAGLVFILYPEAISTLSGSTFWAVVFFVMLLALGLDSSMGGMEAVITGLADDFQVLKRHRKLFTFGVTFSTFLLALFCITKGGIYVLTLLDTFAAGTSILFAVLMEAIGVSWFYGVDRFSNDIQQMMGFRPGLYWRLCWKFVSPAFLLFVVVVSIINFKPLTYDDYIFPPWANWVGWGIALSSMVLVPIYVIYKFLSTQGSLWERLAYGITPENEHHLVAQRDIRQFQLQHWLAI
Sequence of Human α2δ-1 subunit of Cav2.2 calcium channel (P54289 25-1103): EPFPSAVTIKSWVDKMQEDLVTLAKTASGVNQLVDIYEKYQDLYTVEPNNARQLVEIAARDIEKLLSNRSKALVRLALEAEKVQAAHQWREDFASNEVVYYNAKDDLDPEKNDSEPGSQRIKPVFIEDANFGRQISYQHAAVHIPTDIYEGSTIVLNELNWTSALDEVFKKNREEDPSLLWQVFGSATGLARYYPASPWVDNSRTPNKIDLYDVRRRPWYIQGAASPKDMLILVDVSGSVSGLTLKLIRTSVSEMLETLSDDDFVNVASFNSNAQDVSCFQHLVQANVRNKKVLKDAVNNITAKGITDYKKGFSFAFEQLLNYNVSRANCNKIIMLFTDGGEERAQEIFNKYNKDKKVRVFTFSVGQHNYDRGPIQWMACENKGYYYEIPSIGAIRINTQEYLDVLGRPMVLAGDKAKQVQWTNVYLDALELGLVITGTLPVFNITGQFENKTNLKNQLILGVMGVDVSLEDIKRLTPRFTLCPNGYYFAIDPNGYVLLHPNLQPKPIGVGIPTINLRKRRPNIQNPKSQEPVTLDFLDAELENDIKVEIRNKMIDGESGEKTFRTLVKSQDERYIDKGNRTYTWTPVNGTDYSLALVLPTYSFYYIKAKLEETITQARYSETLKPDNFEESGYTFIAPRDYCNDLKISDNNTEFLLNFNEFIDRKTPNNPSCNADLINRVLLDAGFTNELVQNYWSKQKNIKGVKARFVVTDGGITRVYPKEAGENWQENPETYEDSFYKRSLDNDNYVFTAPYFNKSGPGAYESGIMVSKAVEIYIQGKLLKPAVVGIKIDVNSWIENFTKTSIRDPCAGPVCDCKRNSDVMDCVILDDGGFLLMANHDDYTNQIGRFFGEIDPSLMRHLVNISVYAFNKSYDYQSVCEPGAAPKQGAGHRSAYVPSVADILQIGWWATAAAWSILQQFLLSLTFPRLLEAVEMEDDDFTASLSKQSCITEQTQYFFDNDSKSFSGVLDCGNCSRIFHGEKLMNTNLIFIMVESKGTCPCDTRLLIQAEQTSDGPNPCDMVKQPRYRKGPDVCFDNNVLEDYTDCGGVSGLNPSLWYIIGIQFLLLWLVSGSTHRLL

`CCOc1ccc(-n2nc3c(N(C)Cc4cccc(C)n4)nnc(C)c3c2C)c(F)c1` [Example 1, 2-(4-Ethoxy-2-fluorophenyl)-N,3,4-trimethyl-N-((6-methylpyridin-2-yl)methyl)-2H-pyrazolo[3,4-d]pyridazin-7-amine]: the Ki was 500 to 1000 nM in experiment [1] and 100 to 500 nM in experiment [2].

`CCOc1ccc(-n2nc3c(N(C)CCC(O)c4ccccc4)nnc(C)c3c2C)c(F)c1` (stereo not drawn) [Example 2, 3-((2-(4-ethoxy-2-fluorophenyl)-3,4-dimethyl-2H-pyrazolo[3,4-d]pyridazin-7-yl)(methyl)amino)-1-phenylpropan-1-ol]: in experiment [1], the inhibitory constant (Ki) is below 100 nM.

In the case of `CCOc1ccc(-n2nc3c(N(C)CCc4ccccc4)nnc(C)c3c2C)c(F)c1` [Example 3, 2-(4-ethoxy-2-fluorophenyl)-N,3,4-trimethyl-N-phenethyl-2H-pyrazolo[3,4-d]pyridazin-7-amine], the Ki in experiment [1] and in experiment [2] was 100 to 500 nM throughout.

In the case of `CCOc1ccc(-n2nc3c(N(C)CCCc4ccccc4)nnc(C)c3c2C)c(F)c1` [Example 4, 2-(4-ethoxy-2-fluorophenyl)-N,3,4-trimethyl-N-(3-phenylpropyl)-2H-pyrazolo[3,4-d]pyridazin-7-amine], the Ki in experiment [1] and in experiment [2] was 100 to 500 nM each time.

`CCOc1ccc(-n2nc3c(N(C)CC(O)c4ccccc4)nnc(C)c3c2C)c(F)c1` (stereo not drawn) [Example 5, 2-((2-(4-ethoxy-2-fluorophenyl)-3,4-dimethyl-2H-pyrazolo[3,4-d]pyridazin-7-yl)(methyl)amino)-1-phenylethanol]: the values for the Ki in experiment [1] and in experiment [2] were above 1000 nM and 100 to 500 nM, respectively.

For `CCOc1ccc(-n2nc3c(N(C)Cc4ccccc4)nnc(C)c3c2C)c(F)c1` [Example 6, N-benzyl-2-(4-ethoxy-2-fluorophenyl)-N,3,4-trimethyl-2H-pyrazolo[3,4-d]pyridazin-7-amine], the Ki in experiment [1] was below 100 nM.

Consider `CCOc1ccc(-n2nc3c(NCCC(O)c4ccccc4)nnc(C)c3c2C)c(F)c1` (stereo not drawn) [Example 7, 3-((2-(4-ethoxy-2-fluorophenyl)-3,4-dimethyl-2H-pyrazolo[3,4-d]pyridazin-7-yl)amino)-1-phenylpropan-1-ol], for which the Ki in experiment [1] and in experiment [2] was 100 to 500 nM throughout.

With `CCOc1ccc(-n2nc3c(NC(CCO)c4ccccc4)nnc(C)c3c2C)c(F)c1` (stereo not drawn) [Example 8, 3-((2-(4-ethoxy-2-fluorophenyl)-3,4-dimethyl-2H-pyrazolo[3,4-d]pyridazin-7-yl)amino)-3-phenylpropan-1-ol], the Ki in experiment [1] is above 1000 nM; in experiment [2], 100 to 500 nM.

As for `CCOc1ccc(-n2nc3c(N(C)Cc4ccccn4)nnc(C)c3c2C)c(F)c1` [Example 9, 2-(4-ethoxy-2-fluorophenyl)-N,3,4-trimethyl-N-(pyridin-2-ylmethyl)-2H-pyrazolo[3,4-d]pyridazin-7-amine], the results for the Ki in experiment [1] and in experiment [2] were 500 to 1000 nM and 100 to 500 nM, respectively.

As for `CCOc1ccc(-n2nc3c(N(C)Cc4cccnc4)nnc(C)c3c2C)c(F)c1` [Example 10, 2-(4-ethoxy-2-fluorophenyl)-N,3,4-trimethyl-N-(pyridin-3-ylmethyl)-2H-pyrazolo[3,4-d]pyridazin-7-amine], the inhibition constant (Ki) in experiment [1] was 500 to 1000 nM; in experiment [2], 100 to 500 nM.

As to `CCOc1ccc(-n2nc3c(N(C)Cc4ccncc4)nnc(C)c3c2C)c(F)c1` [Example 11, 2-(4-ethoxy-2-fluorophenyl)-N,3,4-trimethyl-N-(pyridin-4-ylmethyl)-2H-pyrazolo[3,4-d]pyridazin-7-amine], the Ki was above 1000 nM in experiment [1] and 100 to 500 nM in experiment [2].

On to `CCOc1ccc(-n2nc3c(NCC(CO)Cc4ccccc4)nnc(C)c3c2C)c(F)c1` (stereo not drawn) [Example 12, 2-benzyl-3-((2-(4-ethoxy-2-fluorophenyl)-3,4-dimethyl-2H-pyrazolo[3,4-d]pyridazin-7-yl)amino)propan-1-ol], for which the Ki in experiment [1] and in experiment [2] was 100 to 500 nM each time.

As to `CCOc1ccc(-n2nc3c(NCc4ccccc4)nnc(C)c3c2C)c(F)c1` [Example 13, N-benzyl-2-(4-ethoxy-2-fluorophenyl)-3,4-dimethyl-2H-pyrazolo[3,4-d]pyridazin-7-amine], the Ki in experiment [1] was in the range of 500 to 1000 nM; in experiment [2], 100 to 500 nM.

In the case of `CCOc1ccc(-n2nc3c(NCc4ccccn4)nnc(C)c3c2C)c(F)c1` [Example 14, 2-(4-ethoxy-2-fluorophenyl)-3,4-dimethyl-N-(pyridin-2-ylmethyl)-2H-pyrazolo[3,4-d]pyridazin-7-amine], the Ki is above 1000 nM in experiment [1] and 100 to 500 nM in experiment [2].

In the case of `CCOc1ccc(-n2nc3c(NCCc4ccccn4)nnc(C)c3c2C)c(F)c1` [Example 15, 2-(4-ethoxy-2-fluorophenyl)-3,4-dimethyl-N-(2-(pyridin-2-yl)ethyl)-2H-pyrazolo[3,4-d]pyridazin-7-amine], the Ki in experiment [1] was above 1000 nM; in experiment [2] it was 100 to 500 nM.

As for `CCOc1ccc(-n2nc3c(N(C)CCc4ccccn4)nnc(C)c3c2C)c(F)c1` [Example 16, 2-(4-ethoxy-2-fluorophenyl)-N,3,4-trimethyl-N-(2-(pyridin-2-yl)ethyl)-2H-pyrazolo[3,4-d]pyridazin-7-amine], the Ki is above 1000 nM in experiment [1] and 100 to 500 nM in experiment [2].

Compound `CCOc1ccc(-n2nc3c(N(C)Cc4cccc(O)c4)nnc(C)c3c2C)c(F)c1` [Example 17, 3-(((2-(4-ethoxy-2-fluorophenyl)-3,4-dimethyl-2H-pyrazolo[3,4-d]pyridazin-7-yl)(methyl)amino)methyl)phenol] displayed a Ki in experiment [1] of 100 to 500 nM.

Regarding `CCOc1ccc(-n2nc3c(N(C)Cc4ccc(O)cc4)nnc(C)c3c2C)c(F)c1` [Example 18, 4-(((2-(4-ethoxy-2-fluorophenyl)-3,4-dimethyl-2H-pyrazolo[3,4-d]pyridazin-7-yl)(methyl)amino)methyl)phenol], in experiment [1], the Ki is below 100 nM.

In the case of `CCOc1ccc(-n2nc3c(N(C)Cc4ccc(OC)cn4)nnc(C)c3c2C)c(F)c1` [Example 38, 2-(4-ethoxy-2-fluorophenyl)-N-((5-methoxypyridin-2-yl)methyl)-N,3,4-trimethyl-2H-pyrazolo[3,4-d]pyridazin-7-amine], in experiment [1], the Ki lay within 100 to 500 nM.

In turn, `CCOc1ccc(-n2nc3c(N(C)Cc4ccccc4CO)nnc(C)c3c2C)c(F)c1` [Example 41, (2-(((2-(4-ethoxy-2-fluorophenyl)-3,4-dimethyl-2H-pyrazolo[3,4-d]pyridazin-7-yl)(methyl)amino)methyl)phenyl)meth-anol] registered a Ki in experiment [1] of 100 to 500 nM.

Take `Cc1nnc(N(C)Cc2ccccn2)c2nn(-c3ccc(Cl)cc3OC(F)(F)F)c(C)c12` [Example 42, 2-(4-chloro-2-(trifluoromethoxy)phenyl)-N,3,4-trimethyl-N-(pyridin-2-ylmethyl)-2H-pyrazolo[3,4-d]pyridazin-7-amine]: the Ki in experiment [1] was above 1000 nM.

Turning to `CCOc1ccc(-n2nc3c(N(C)Cc4cc(C)ccn4)nnc(C)c3c2C)c(F)c1` [Example 44, 2-(4-ethoxy-2-fluorophenyl)-N,3,4-trimethyl-N-((4-methylpyridin-2-yl)methyl)-2H-pyrazolo[3,4-d]pyridazin-7-amine], the Ki in experiment [1] was in the range of 500 to 1000 nM.

Regarding `CCOc1ccc(-n2nc3c(N(C)Cc4ccccn4)nnc(C)c3c2C)cc1` [Example 46, 2-(4-ethoxyphenyl)-N,3,4-trimethyl-N-(pyridin-2-ylmethyl)-2H-pyrazolo[3,4-d]pyridazin-7-amine], the Ki in experiment [1] lay in the range of 500 to 1000 nM.

With `CCOc1ccc(-n2nc3c(N(C)CC[C@H](O)c4ccccc4)nnc(C)c3c2C)c(F)c1` [Example 49, (S)-3-((2-(4-Ethoxy-2-fluorophenyl)-3,4-dimethyl-2H-pyrazolo[3,4-d]pyridazin-7-yl)(methyl)amino)-1-phenylpropan-1-ol], the Ki in experiment [1] was below 100 nM.

As for `CCOc1ccc(-n2nc3c(N(C)CC[C@@H](O)c4ccccc4)nnc(C)c3c2C)c(F)c1` [Example 50, (R)-3-((2-(4-ethoxy-2-fluorophenyl)-3,4-dimethyl-2H-pyrazolo[3,4-d]pyridazin-7-yl)(methyl)amino)-1-phenylpropan-1-ol], the Ki in experiment [1] lay in the range of 100 to 500 nM.

Take `CCOc1ccc(-n2nc3c(NCC[C@@H](O)c4ccccc4)nnc(C)c3c2C)c(F)c1` [Example 51, (R)-3-((2-(4-Ethoxy-2-fluorophenyl)-3,4-dimethyl-2H-pyrazolo[3,4-d]pyridazin-7-yl)amino)-1-phenylpropan-1-ol]: the Ki in experiment [1] is above 1000 nM.

The compound `CCOc1ccc(-n2nc3c(NCC[C@H](O)c4ccccc4)nnc(C)c3c2C)c(F)c1` [Example 52, (S)-3-((2-(4-ethoxy-2-fluorophenyl)-3,4-dimethyl-2H-pyrazolo[3,4-d]pyridazin-7-yl)amino)-1-phenylpropan-1-ol] displayed a Ki in experiment [1] of 100 to 500 nM.

Regarding `CCOc1ccc(-n2nc3c(N(CCO)Cc4ccccc4)nnc(C)c3c2C)c(F)c1` [Example 55, 2-(benzyl(2-(4-ethoxy-2-fluorophenyl)-3,4-dimethyl-2H-pyrazolo[3,4-d]pyridazin-7-yl)amino)ethanol], the Ki in experiment [1] is 500 to 1000 nM.

The term Ki denotes the equilibrium dissociation constant of an inhibitor or competing ligand from its target.
